{"source": "patent US20120289492A1", "about": "“METHODS OF TREATING MITOCHONDRIAL DISORDERS USING METALLOPORPHYRINS” (priority 2009, published 2012)", "key": {"[1]": {"tested_on": "paraquat (PQ2+)-induced cell injury", "test": "Paraquat (PQ2+)-induced cell injury assay", "type": "cell-based", "conditions": "data not shown"}, "[2]": {"test": "Ames' test (mutagenicity)", "type": "cell-based", "text": "(§1) Safety profile: A prototypical metalloporphyrin (AEOL10150; FIG. 1) has completed phase 1 trials in amyotrophic lateral sclerosis patients. Extensive safety studies of this compound have been completed in mice, monkeys and rats. […] Safety studies for the structurally related compound, AEOL11207 need to be completed once its efficacy is established in animal studies."}, "B6D2F2 Sod2−/− mice": {"tested_on": "B6D2F2 Sod2−/− mice", "test": "Behavioral seizure evaluation and survival of Sod2−/− mice", "from_the_text": "The model utlizes cross-bred C57BL6XDBA2F2 (B6D2) mutant mice lacking manganese superoxide dismutase (MnSOD or Sod2), a critical mitochondrial antioxidant.\nChronic Video Monitoring and Seizure Scoring: Sod2−/− mice and wild type littermates aged P7-˜P21 are digitally recorded 8 hrs/day in a custom designed plexiglass cage using a Q-See QD14B video monitoring system connected to a recordable DVD. DVD recordings are saved and reviewed by a trained observer blind to genotype and/or treatment for scoring of seizure severity, duration, and frequency. Seizure severity will be rated using the following scale: 1=immobilization & staring, 2=head-nodding, occasional forelimb clonic and tonic activity, 3=continuous forelimb clonic and tonic activity, 4=generalized seizures with falling, running and jumping.\nThe mutant mice were monitored on a daily basis to get an accurate birth and death data. Pups were not culled or handled before P5 to avoid maternal rejection.\nMetalloporphyrin (AEOL11207) administration B6D2F1 Sod2−/− mice and their wild-type littermates (control mice) were treated with AEOL11207 (5 mg/kg) or vehicle by subcutaneous (s.c.) injection daily starting at 5 days of age until death or being sacrificed. AEOL11207 was dissolved in dimethyl sulfoxide (DMSO) and diluted with sterilized phosphate buffered saline (PBS) to achieve the desired final concentration (1% DMSO). The control animals were injected with sterilized PBS containing 1% DMSO. The animals were divided into four different groups: 1) control mice +vehicle; 2) B6D2F1 Sod2−/− mice+vehicle; 3) control mice +AEOL11207; 4) B6D2F1 Sod2−/− mice +AEOL11207. The treated and untreated mice were sacrificed at 15-16 days old for pathology and biochemistry assays or until death for survival and seize behavioral evaluation.\nDuring the weaning period (P15-P18) mice were recorded in the presence of their mothers, and individually thereafter. Video was digitally recorded (Panasonic DMR-ES 15) and stored on DVD-R′s for observation and quantification of seizure number, duration, frequency, and severity by an observer blind to treatments. Seizure severity was scored according to the following scale: 1=immobilization and staring, 2=head-nodding, shaking, 3=forelimb tonic/clonic activity, 4=continuous forelimb tonic/clonic activity with falling, running or jumping. Due to the presence of abnormal gait and posturing in Sod2^−/− mice, only spontaneous motor seizures with scores>3 were included for comparison between groups. The scoring and analysis was conducted by an investigator blinded to genotype and treatment.\nStatistical analyses Survival analysis was performed using the Kaplan-Meier method. […] P values less than 0.05 were considered significant."}, "[3]": {"tested_on": "mitochondrial SOD activity", "test": "SOD2 activity assay in forebrain mitochondrial fractions", "type": "in vivo", "conditions": "treated Sod2−/− mice vs Sod2+/+ mice (1.56±0.17 units/mg protein)"}, "mouse lymphoma": {"tested_on": "mouse lymphoma", "test": "Mouse lymphoma test (mutagenicity)", "type": "cell-based", "text": "as §1"}, "Wild-type mice": {"tested_on": "Wild-type mice", "test": "Tolerability in wild-type mice", "type": "in vivo", "conditions": "5 mg/kg daily, up to 20 days of treatment"}, "[4]": {"test": "Scavenging of reactive oxygen species in cell-free systems and isolated mitochondria", "type": "biochemical"}, "[5]": {"tested_on": "forebrain of Sod2−/− mice", "test": "Mitochondrial oxidative stress and bioenergetic indices in brain of Sod2−/− mice", "type": "in vivo"}, "[6]": {"tested_on": "1-methyl-4-phenyl-1,2,3,6-tetrahydropyridine (MPTP) neurotoxicity", "conditions": "oral administration; cited from earlier work"}, "[7]": {"conditions": "mouse, in vivo, po, 15 mg/kg", "procedure": "In another exemplary method, oral administration of AEOL11207 was examined for efficiently to penetrate the blood-brain barrier (BBB) and brain mitochondria. To determine if AEOL11207 penetrates the BBB, preliminary studies were conducted in mice following injection of AEOL 11207. Mice were given a single dose of the compound (15 mg/kg, p.o. AEOL 11207) or vehicle (control). At various times after injection, mice were perfused and brains (cortex) and plasma were extracted with methanol and samples analyzed by an HPLC method as described previously. […] FIGS. 3A and 3B illustrate plasma and brain concentrations of AEOL11207 following s.c. or p.o. administration. […]\nFIGS. 3A-3B illustrate exemplary concentrations of AEOL11207 in the plasma (3A) and brains (3B) of the C57BL/6 mice at different times points after a single dose of AEOL11207 (15 mg/kg) administered by the s.c or p.o. route. […] FIG. 3C illustrates an exemplary chromatogram of AEOL 11207 levels measured by HPLC with UV detection at 450 nm in mitochondrial fractions of mouse forebrain 24 hr after AEOL11207 15 mg/kg s.c. as previously described. Recovery of AEOL11207 from mitochondrial samples was determined to be ˜98%. […]\nDetermination of metalloporphyrin levels AEOL11207 was measured by HPLC-UV following previously described methods (Liang, et al. (2007) J Neurosci 27, 4326-33)."}, "[8]": {"conditions": "Sod2−/− mice, 5 mg/kg s.c. daily from P5, vs vehicle, 5 mg/kg"}, "[9]": {"conditions": "forebrain mitochondrial fraction of Sod2−/− mice"}}, "note": "“Also recorded” adds a separate entry of the source."}
{"smiles": "COC(=O)c1c2nc(c(C(F)(F)F)c3ccc([n-]3)c(C(=O)OC)c3nc(c(C(F)(F)F)c4ccc1[n-]4)C=C3)C=C2.[Cl-].[Mn+3]", "note": "[AEOL11207]", "values": [{"measurement": "protective range", "setting": "[1]", "value": "30 to 100", "unit": "nM"}, {"measurement": "mutagenicity, Ames' test", "setting": "[2]", "value": "negative"}, {"measurement": "Sod2−/− mice surviving beyond 15 days old", "setting": "B6D2F2 Sod2−/− mice; 5 mg/kg daily, vehicle ~48%", "value": "all"}, {"measurement": "Sod2−/− mice exhibiting spontaneous tonic-clonic seizures", "setting": "B6D2F2 Sod2−/− mice; P15-P20, daily observation, all vehicle-treated mice", "value": 37, "unit": "%"}, {"measurement": "frequency of spontaneous behavioral seizures", "setting": "B6D2F2 Sod2−/− mice; [8]", "value": "significantly decreased; also recorded: decrease; also recorded: significantly attenuates"}, {"measurement": "seizure severity", "setting": "B6D2F2 Sod2−/− mice; [8]", "value": "but not seizure duration or severity; also recorded: no significant changes"}, {"measurement": "total number of spontaneous behavioral seizures", "setting": "B6D2F2 Sod2−/− mice; [8]", "value": "decrease; also recorded: significantly attenuates"}, {"measurement": "average lifespan", "setting": "B6D2F2 Sod2−/− mice; Sod2−/− mice, 5 mg/kg s.c. daily starting at 5 days of age, 5 mg/kg", "value": "20.33 ± 2.00", "unit": "days"}, {"measurement": "average lifespan", "setting": "B6D2F2 Sod2−/− mice; Sod2−/− mice, 5 mg/kg s.c. daily starting at 5 days of age, listed as AEOL 11207, 5 mg/kg", "value": "20.383 ± 0.43", "unit": "days"}, {"measurement": "average lifespan", "setting": "B6D2F2 Sod2−/− mice; Sod2−/− mice, daily treatment 2.5 mg/kg", "value": "no significant increase"}, {"measurement": "behavioral seizure characteristics / seizure parameters", "setting": "B6D2F2 Sod2−/− mice; Sod2−/− mice, s.c. from postnatal day 5", "value": "attenuates; also recorded: significantly attenuated; also recorded: ameliorates"}, {"measurement": "Cyanide insensitive SOD activity compared to Sod2+/+ mice", "setting": "[3]", "value": "~40", "unit": "%"}, {"measurement": "mutagenicity, mouse lymphoma test", "setting": "mouse lymphoma", "value": "negative"}, {"measurement": "ill effects", "setting": "Wild-type mice", "value": "no ill effects"}, {"measurement": "mortality", "setting": "Wild-type mice", "value": "no mortality"}, {"measurement": "scavenging of mitochondrial O2-, H2O2 and lipid peroxides", "setting": "[4]", "value": "catalytically scavenges"}, {"measurement": "depletion of ascorbate", "setting": "[5]; brains of Sod2−/− mice", "value": "significantly attenuated"}, {"measurement": "depletion of glutathione", "setting": "[5]; brains of Sod2−/− mice", "value": "significantly attenuated"}, {"measurement": "decrease in cysteine", "setting": "[5]; [9]", "value": "significantly attenuated"}, {"measurement": "decrease in methionine", "setting": "[5]; [9]", "value": "significantly attenuated"}, {"measurement": "increased CoASSG", "setting": "[5]; forebrain of Sod2−/− mice, 15-16 days old", "value": "significantly attenuated"}, {"measurement": "decrease in glutamate transporter GLT-1 expression", "setting": "[5]; hippocampus of Sod2−/− mice, Western blot", "value": "significantly attenuated"}, {"measurement": "protection against MPTP neurotoxicity", "setting": "[6]", "value": "protected"}, {"measurement": "estimated concentration in the brain", "setting": "[7]", "value": "within the protective range"}]}
